Test results from patent publication US20220252611A1 (priority 2019, published 2022).

Key:
[1] = test system: alpha 1 adrenergic receptor; test: Simultaneous MS binding assay, alpha 1 adrenergic receptor in rat cortex; conditions: multiplexed with RX821002, FIG. 3A
Description: (§1) FIG. 3A is a graph showing a simultaneous binding experiment with alpha1 and alpha 2 beta-adrenoceptors. The target molecules are comprised in rat cortex, which contains both alpha 1 and alpha 2 beta adrenoceptors. The test compound is WB4101 and the ligands are prazosine and RX821002.
(§2) This example used target molecule comprising both alpha 1 and alpha 2 beta adeno receptors incubated with WB4101 (test compound) in the presence prazosine (ligand, or “marker” for alpha 1) and RX821002 (ligand, or “marker” for alpha 2) as shown in FIG. 3A. In FIG. 3B, yohimbine (test compound) was tested in the presence of in the presence prazosine (marker for alpha 1) and RX821002 (marker for alpha 2). The signals are indicated ns for non-specific.
(§3) Rat cortexes from Wistar male rats were harvested and transferred to 50 mM Tris-HCl (pH, 7.4) and homogenized by a polyton. […] The pellet was finally resuspended in a smaller volume of lyses buffer and the final protein concentration was determined according to the Bradford method using bovine serum albumin as a standard. […]
(§4) The filters were dried for one hour at 50° C. and cooled to room temperature before elution of ligands using a acetonitrile (contained 100 μM of antipyrine as an internal standard) via a vacuum manifold. Relative quantification of ligand in each sample was performed by UHPLC-MS-MS, the ratio area of ligand and internal standard was used. […]

sodium channels = test: Radioligand binding assay of sodium (Na) channel; conditions: rat cortex sodium channels; first value column of Table 4 (SNR 6), taken as radioligand binding
[2] = molecular target: sodium channel (Na+) site 2 receptor; test: MS binding assay of sodium channel, batrachotoxin as ligand, UHPLC-MS/MS; conditions: rat cortex membrane 200 μg/well, 60 minutes at 37° C.; second value column of Table 4 (SNR 8), taken as MS binding
[3] = test system: alpha 2 adrenergic receptor; test: Simultaneous MS binding assay, alpha 2 adrenergic receptor in rat cortex; conditions: multiplexed with prazosine, FIG. 3A
Description: as §1, §2, §3, §4

## COc1cc2nc(N3CCN(C(=O)c4ccco4)CC3)nc(N)c2cc1OC [prazosine]
[1]
  specific binding to alpha 1 adrenergic receptor: shown specifically to bind

## Batrachotoxin
Sodium channels
  Kd: 91 nM
[2]
  EC50: 143 nM

## COC1(C2=NCCN2)COc2ccccc2O1 (stereo not shown) [RX821002]
[3]
  specific binding to alpha 2 adrenergic receptor: shown specifically to bind
